Measurements as given in patent publication US7781161B2, “Genomic screen for epigenetically silenced tumor suppressor genes” (The Johns Hopkins University School of Medicine, priority 2002, dated 2010).

How the values were obtained:
Assay type in all cases: cell-based, human
[1] = test system: KYSE520; experiment: Oligonucleotide microarray: genes up-regulated after 5Aza-dC ± TSA treatment; conditions: at least 3.0 fold increase
Procedure: (§1) Cells were split to low density (5×10^5 per T-25 flask) 12 to 24 hr before treatment, then treated for 3, 4, or 5 days with 1 μM or 5 μM 5Aza-dC (Sigma) from 100-mM 50% acetic acid dissolved stock or were mock-treated with the same volume of phosphate buffered saline (PBS) including the same acetic acid. Following an initial incubation (48 hr) of 5Aza-dC, a final concentration of 300 nM TSA (Sigma) was added to the media from a 5 mM ethanol dissolved stock, or cells were mock-treated with an identical volume of ethanol.
(§2) Oligonucleotide microarray analysis was performed using the GeneChip™ Human Genome U95Av2 Array (Affymetrix), which contains 12,599 genes, according to the manufacturer's instruction. […] RNA was isolated using TRIZOL reagent (Invitrogen Corp.) and reverse-transcribed total RNA (8 μg) with M-MLV (Invitrogen Corp.); one one-hundredth of the cDNA product was used as a template for PCR. RT-PCR was performed at 24 to 30 cycles: 95° C. for 1 min, 54 or 56° C. for 1 min, and 72° C. for 1 min.
(§3) Treatment of cells with the demethylating agent 5aza-dC (1 μM or 5 μM) for 3 to 5 days, and with or without the histone deacetylase inhibitor, TSA (300 nM; last 24 hours), was used to reactivate genes epigenetically silenced in 3 ESCC cell lines. […] The number of candidate genes was further diminished by comparing expression patterns (see world wide web, at URL “cgap.nci.nih.gov”) in normal esophagus and carcinoma tissue samples (eliminating those genes not expressed in normal tissue), and excluding unknown genes.

[2] = test system: KYSE410; experiment: as above; conditions: at least 3.0 fold increase
Procedure: as §1, §2, §3

[3] = test system: KYSE30; experiment: as above; conditions: at least 3.0 fold increase
Procedure: as §1, §2, §3

[4] = test system: HNSCC #011 cell line; experiment: Microarray screen for reactivated genes in HNSCC cells; conditions: 10 μM 5Aza-dC
Procedure: as §1, §2
HNSCC cells were incubated with 10 μM 5Aza-dC or with 0.1 μM 5Aza-dC and 300 nM TSA and screened as described in Example 1.

[5] = test system: 3 ESCC cell lines; experiment: Microarray screen, pooled over the 3 ESCC cell lines
Procedure: as §1, §2
Treatment of cells with the demethylating agent 5aza-dC (1 μM or 5 μM) for 3 to 5 days, and with or without the histone deacetylase inhibitor, TSA (300 nM; last 24 hours), was used to reactivate genes epigenetically silenced in 3 ESCC cell lines. […]

SMILES: Nc1ncn([C@H]2C[C@H](O)[C@@H](CO)O2)c(=O)n1 [5Aza-dC, 5-aza-2′-deoxycytidine]
- Genes upregulated by microarray analysis after treatments ([1]; 1 μM 5Aza-dC): 5 genes
- Genes upregulated by microarray analysis after treatments ([1]; 5 μM 5Aza-dC): 149 genes
- Genes upregulated by microarray analysis after treatments ([2]; 1 μM 5Aza-dC): 15 genes
- Genes upregulated by microarray analysis after treatments ([2]; 5 μM 5Aza-dC): 334 genes
- Genes upregulated by microarray analysis after treatments ([3]; 1 μM 5Aza-dC): 46 genes
- Genes upregulated by microarray analysis after treatments ([3]; 5 μM 5Aza-dC): 242 genes
- Reactivation of epigenetically silenced genes ([4]; HNSCC cells): Reactivation of epigenetically silenced genes was observed
- Fold increase in expression: H.sapiens p27 mRNA (X67325) ([4]; probe 425_at, HNSCC #011): 5.8 fold
- Fold increase in expression: tumor necrosis factor alpha inducible protein ([4]; probe 595_at, HNSCC #011): 3.648 fold
- Fold increase in expression: von Hippel-Lindau disease tumor suppressor mRNA ([4]; probe 1668_s_a, HNSCC #011): 2.4375 fold
- Fold increase in expression: insulin-like growth factor binding protein 6 (IGFBP6) gene (M62402) ([4]; probe 1736_at, HNSCC #011): 2.2 fold
- Fold increase in expression: Human Rad mRNA (L24564) ([4]; probe 1776_at, HNSCC #011): 10.9 fold
- Fold increase in expression: mRNA for TGF-betaIIR alpha ([4]; probe 1814_at, HNSCC #011): 3.3 fold
- Fold increase in expression: Human Bc12, p53 binding protein (U58334) ([4]; probe 1860_at, HNSCC #011): 2.3 fold
- Fold increase in expression: Human R-ras gene (M14949) ([4]; probe 1879_at, HNSCC #011): 3.7 fold
- Fold increase in expression: Human excision repair protein (ERCC1) mRNA ([4]; probe 1902_at, HNSCC #011): 5.562 fold
- Fold increase in expression: Human wild-type p53 activated fragment-1 (WAF1) mRNA (U03106) ([4]; probe 2031_s_a, HNSCC #011): 2.9 fold
- Fold increase in expression: breast cancer putative transcription factor (ZABC1) gene (AF041259) ([4]; probe 32034_at, HNSCC #011): 3.1 fold
- Fold increase in expression: DR4 homolog; TRAIL receptor 2 ([4]; probe 34892_at, HNSCC #011): 2.4292 fold
- Fold increase in expression: DOC-1 related protein ([4]; probe 35151_at, HNSCC #011): 2.4474 fold
- Fold increase in expression: Mothers against dpp (Mad) gene (DPC4 gene), U10328 ([4]; probe 36953_at, HNSCC #011): 3.5132 fold
- Fold increase in expression: TGFb inducible early protein and early growth response protein alpha genes (AF050110) ([4]; probe 38374_at, HNSCC #011): 2.3 fold
- Fold increase in expression: insulin-like growth factor binding protein 4 (IGFBP4) gene (U20982) ([4]; probe 39781_at, HNSCC #011): 3.7 fold
- Share of all up-regulated genes included in the treatment group ([5]; 5 μM 5Aza-dC treatment group, 3 ESCC cell lines): > 80%
- STAT3 expression after treatment ([5]; after 5Aza-dC treatments): did not change
